Literature values, collected in patent publication US8986736B2, “Method for delivering particulate drugs to tissues” (Baxter International Inc., priority 2003, dated 2015).

System: HIV-infected macrophages

CC(C)(C)NC(=O)[C@@H]1C[C@@H]2CCCC[C@@H]2CN1C[C@@H](O)[C@H](Cc1ccccc1)NC(=O)[C@H](CC(N)=O)NC(=O)c1ccc2ccccc2n1 [saquinavir]
activity in chronically HIV-infected macrophages (100 nM, in solution): completely inactive | antiviral activity (aqueous solution, HIV-infected macrophages): little antiviral activity
